In brackets after ≈: the same amount, converted by molar mass. Where two headings read alike, the source gives them in different places.
Columns and labels:
[1] = tested on: Escherichia coli EC14; assay: standard agar-dilution MIC assay; format: cell-based; settings: agar-dilution, read-out: MIC
Method: (§1) The MIC's in Table III were determined by standard agar-dilution assays. The MIC's in Table IV were obtained using conventional brothdilution microtiter tests.

[2] = tested on: Haemophilus influenzae 76; assay: standard agar-dilution MIC assay; format: cell-based; settings: Haemophilus influenzae, 76
Method: as §1

[3] = tested on: Haemophilus influenzae C.L.; assay: standard agar-dilution MIC assay; format: cell-based; settings: Haemophilus influenzae
Method: as §1

[4] = tested on: Klebsiella pneumoniae X68; assay: standard agar-dilution MIC assay; format: cell-based; settings: Klebsiella pneumoniae, X68; agar-dilution; read-out: MIC
Method: as §1

[5] = tested on: Pseudomonas aeruginosa X239; assay: standard agar-dilution MIC assay; format: cell-based; settings: Pseudomonas aeruginosa, X239; agar-dilution; read-out: MIC
Method: as §1

[6] = tested on: Staphylococcus aureus V41; assay: standard agar-dilution MIC assay; format: cell-based; settings: Staphylococcus aureus, V41
Method: as §1

[7] = tested on: Staphylococcus aureus X1.1; assay: standard agar-dilution MIC assay; format: cell-based; settings: Staphylococcus aureus, X1.1
Method: as §1

[8] = tested on: Staphylococcus aureus X400; assay: standard agar-dilution MIC assay; format: cell-based; settings: Staphylococcus aureus, X400
Method: as §1

[9] = tested on: Staphylococcus epidermidis 222; assay: standard agar-dilution MIC assay; format: cell-based; settings: Staphylococcus epidermidis, 222
Method: as §1

[10] = tested on: Staphylococcus epidermidis EPI1; assay: standard agar-dilution MIC assay; format: cell-based; settings: Staphylococcus epidermidis, EPI1
Method: as §1

[11] = tested on: Streptococcus Group D 2041; assay: standard agar-dilution MIC assay; format: cell-based; settings: GROUPD2041
Method: as §1

[12] = tested on: Streptococcus Group D X66; assay: standard agar-dilution MIC assay; format: cell-based; settings: read-out: MIC
Method: as §1

[13] = tested on: Streptococcus pyogenes C203; assay: standard agar-dilution MIC assay; format: cell-based; settings: Streptococcus pyogenes, C203
Method: as §1

[14] = tested on: Staphylococcus aureus S13E; assay: microbe, parasite or virus in culture; format: cell-based; settings: Staphylococcus aureus, S13E
Method: as §1

[15] = tested on: Streptococcus pneumoniae Park I; assay: microbe, parasite or virus in culture; format: cell-based; settings: Streptococcus pneumoniae
Method: as §1

[16] = tested on: Bordetella bronchiseptica; assay: broth-dilution microtiter MIC test; format: cell-based; settings: Bordetella bronchiseptica; broth-dilution microtiter; read-out: MIC
Method: as §1

[17] = tested on: Mycoplasma gallisepticum 15E; assay: broth-dilution microtiter MIC test; format: cell-based; settings: Mycoplasmoides gallisepticum, 15E
Method: as §1

[18] = tested on: Mycoplasma gallisepticum 29C; assay: broth-dilution microtiter MIC test; format: cell-based; settings: Mycoplasmoides gallisepticum, 29C
Method: as §1

[19] = tested on: Mycoplasma gallisepticum 36H; assay: broth-dilution microtiter MIC test; format: cell-based; settings: Mycoplasmoides gallisepticum, 36H
Method: as §1

[20] = tested on: Mycoplasma hyopneumoniae S5972; assay: broth-dilution microtiter MIC test; format: cell-based; settings: Mesomycoplasma hyopneumoniae, S5972
Method: as §1

[21] = tested on: Mycoplasma hyorhinis 29E; assay: broth-dilution microtiter MIC test; format: cell-based; settings: Mycoplasma, 29E
Method: as §1

[22] = tested on: Mycoplasma synoviae 40A; assay: broth-dilution microtiter MIC test; format: cell-based; settings: Mycoplasmopsis synoviae, 40A
Method: as §1

[23] = tested on: Pasteurella hemolytica 22C; assay: broth-dilution microtiter MIC test; format: cell-based; settings: Pasteurella, 22C
Method: as §1

[24] = tested on: Pasteurella hemolytica 23C; assay: broth-dilution microtiter MIC test; format: cell-based; settings: Pasteurella, 23C
Method: as §1

[25] = tested on: Pasteurella hemolytica 41D; assay: broth-dilution microtiter MIC test; format: cell-based; settings: Pasteurella, 41D
Method: as §1

[26] = tested on: Pasteurella multocida 17E; assay: broth-dilution microtiter MIC test; format: cell-based; settings: Pasteurella multocida, 17E
Method: as §1

[27] = tested on: Pasteurella multocida 22A; assay: broth-dilution microtiter MIC test; format: cell-based; settings: Pasteurella multocida, 22A
Method: as §1

[28] = tested on: Pasteurella multocida 40G; assay: broth-dilution microtiter MIC test; format: cell-based; settings: Pasteurella multocida, 40G
Method: as §1

[29] = tested on: Pasteurella multocida 60A; assay: broth-dilution microtiter MIC test; format: cell-based; settings: Pasteurella multocida, 60A
Method: as §1

[30] = tested on: Pasteurella multocida 68C; assay: broth-dilution microtiter MIC test; format: cell-based; settings: Pasteurella multocida, 68C
Method: as §1

[31] = tested on: Staphylococcus aureus 19C; assay: broth-dilution microtiter MIC test; format: cell-based; settings: Staphylococcus aureus, 19C
Method: as §1

[32] = tested on: Streptococcus sp. 19F; assay: broth-dilution microtiter MIC test; format: cell-based; settings: Streptococcus, SP.19F
Method: as §1

[33] = tested on: Streptococcus pyogenes C203; assay: protection of mice experimentally infected with S. pyogenes C203; format: in vivo; settings: mice, mg/kg × 2, doses given 1 and 4 hours postinfection, read-out: ED50
Procedure, shortened: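 Mice experimentally infected with S. pyogenes C203 got two doses of test compound, at 1 and 4 h postinfection. The ED50 is the dose in mg/kg (per dose, given twice) that protected 50% of the animals.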

[34] = broth-dilution microtiter, read-out: MIC

CCC1OC(=O)CC(O)C(C)C(OC2OC(C)C(OC3CC(C)(O)C(O)C(C)O3)C(N(C)C)C2OC(C)=O)C(CC=O)CC(C)C(=O)C=CC(C)=CC1COC1OC(C)C2OC(=O)OC2C1OC (centres unmarked) [Compound 48]
MIC [1]: > 128 µg/mL | MIC ([2]; agar-dilution, Ampicillin-resistant strain, read-out: MIC): 16 µg/mL (≈ 16.5 µM) | MIC [3]: 32 µg/mL (≈ 33 µM) | MIC [4]: > 128 µg/mL | MIC [5]: > 128 µg/mL | MIC [6]: 1 µg/mL (≈ 1.03 µM) | MIC [7]: 1 µg/mL (≈ 1.03 µM) | MIC [8]: 2 µg/mL (≈ 2.06 µM) | MIC ([9]; agar-dilution, read-out: MIC): 0.5 µg/mL (≈ 0.515 µM) | MIC [10]: 1 µg/mL (≈ 1.03 µM) | MIC [11]: 2 µg/mL (≈ 2.06 µM) | MIC [12]: 2 µg/mL (≈ 2.06 µM) | MIC ([13]; agar-dilution, read-out: MIC): 0.5 µg/mL (≈ 0.515 µM) | MIC [14]: 1 µg/mL (≈ 1.03 µM) | MIC ([15]; agar-dilution, read-out: MIC): 0.12 µg/mL (≈ 0.124 µM) | MIC [16]: > 50 µg/mL | MIC [17, 34]: 12.5 µg/mL (≈ 12.9 µM) | MIC [18]: 0.195 µg/mL (≈ 0.201 µM) | MIC [19]: 50 µg/mL (≈ 51.5 µM) | MIC [20, 34]: 0.097 µg/mL (≈ 0.1 µM) | MIC [21, 34]: 1.56 µg/mL (≈ 1.61 µM) | MIC [22, 34]: 0.097 µg/mL (≈ 0.1 µM) | MIC [23, 34]: > 50 µg/mL | MIC [24]: 50 µg/mL (≈ 51.5 µM) | MIC [25]: 50 µg/mL (≈ 51.5 µM) | MIC ([26]; broth-dilution microtiter, Bovine isolate, read-out: MIC): 12.5 µg/mL (≈ 12.9 µM) | MIC [27]: 50 µg/mL (≈ 51.5 µM) | MIC [28, 34]: 25 µg/mL (≈ 25.8 µM) | MIC ([29]; broth-dilution microtiter, Avian isolate, read-out: MIC): 25 µg/mL (≈ 25.8 µM) | MIC [30, 34]: 12.5 µg/mL (≈ 12.9 µM) | MIC [31, 34]: 1.56 µg/mL (≈ 1.61 µM) | MIC [32]: 0.39 µg/mL (≈ 0.402 µM) | ED50 ([33]; C203, Oral): 28 mg/kg | ED50 ([33]; C203, sc, Subcutaneous): 1.53 mg/kg

CCC1OC(=O)CC(O)C(C)C(OC2OC(C)C(O)C(N(C)C)C2O)C(CCOc2ccccc2)CC(C)C(=O)C=CC(C)=CC1COC1OC(C)C2OC(=O)OC2C1OC (centres unmarked) [Compound 53, 20-DH-20-O-Phenyl-lactenocin 3",4"-Carbonate]
MIC [1]: > 128 µg/mL | MIC [2]: 32 µg/mL (≈ 37.1 µM) | MIC [3]: 64 µg/mL (≈ 74.2 µM) | MIC [4]: > 128 µg/mL | MIC [5]: > 128 µg/mL | MIC [6]: 1 µg/mL (≈ 1.16 µM) | MIC [7]: 1 µg/mL (≈ 1.16 µM) | MIC [8]: 1 µg/mL (≈ 1.16 µM) | MIC [9]: 0.5 µg/mL (≈ 0.58 µM) | MIC [10]: 1 µg/mL (≈ 1.16 µM) | MIC [11]: 8 µg/mL (≈ 9.28 µM) | MIC [12]: 8 µg/mL (≈ 9.28 µM) | MIC [13]: 0.5 µg/mL (≈ 0.58 µM) | MIC [14]: 1 µg/mL (≈ 1.16 µM) | MIC [15]: 2 µg/mL (≈ 2.32 µM) | MIC [16]: > 50 µg/mL | MIC [17]: 50 µg/mL (≈ 58 µM) | MIC [18]: 0.195 µg/mL (≈ 0.226 µM) | MIC [19]: 50 µg/mL (≈ 58 µM) | MIC [20]: 3.12 µg/mL (≈ 3.62 µM) | MIC [21]: 25 µg/mL (≈ 29 µM) | MIC [22]: 1.56 µg/mL (≈ 1.81 µM) | MIC [23]: 50 µg/mL (≈ 58 µM) | MIC [24]: 50 µg/mL (≈ 58 µM) | MIC [25]: 50 µg/mL (≈ 58 µM) | MIC [26]: 25 µg/mL (≈ 29 µM) | MIC [27]: 50 µg/mL (≈ 58 µM) | MIC [28]: 50 µg/mL (≈ 58 µM) | MIC [29]: 25 µg/mL (≈ 29 µM) | MIC [30]: 25 µg/mL (≈ 29 µM) | MIC [31]: 0.78 µg/mL (≈ 0.905 µM) | MIC [32]: 3.12 µg/mL (≈ 3.62 µM) | ED50 ([33]; C203, Oral): 18.7 mg/kg | ED50 ([33]; C203, sc, Subcutaneous): 6.1 mg/kg

Source: patent publication US4820694A, “Modifications of 3-O-demethylmycinose in macrocin and lactenocin” (priority 1986, dated 1989)
